Measurements as given in the supplement of paper PMC8671470.

How the values were obtained:
Settings in all cases: 72 h
MV4-11 [1] = assay: cell viability (% survival relative to DMSO control, bortezomib = 0%); higher = less cytotoxic
Method in brief: (§1)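 Fifteen myeloid leukaemia cell lines were exposed to compounds at 1, 10, 100, 1000 or 10000 nM in 384-well plates for 72 h at 37 °C and 5% CO2. Viability was read by CellTiter-Glo luminescence and normalised, with vehicle as 100% and a 10 µM positive control as 0%. Values are percent survival averaged over duplicates.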

KCL-22 [2] = assay: as above
Method in brief: as §1

ML-2 [3] = assay: as above
Method in brief: as §1

NOMO-1 [4] = assay: as above
Method in brief: as §1

Mono-Mac-6 [5] = assay: as above
Method in brief: as §1

HL-60 [6] = assay: as above
Method in brief: as §1

BV-173 [7] = assay: as above
Method in brief: as §1

KU-812 [8] = assay: as above
Method in brief: as §1

THP-1 [9] = assay: as above
Method in brief: as §1

LAMA-84 [10] = assay: as above
Method in brief: as §1

HEL [11] = assay: as above
Method in brief: as §1

K-562 [12] = assay: as above
Method in brief: as §1

MOLM-13 [13] = assay: as above
Method in brief: as §1

KG-1 [14] = assay: as above
Method in brief: as §1

SHI-1 [15] = assay: as above
Method in brief: as §1

MV4-11 [16] = system: MV4-11
Method in brief: (§2)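 Fifteen myeloid leukaemia lines were incubated for 72 h at 37 °C with 5% CO2 across five tenfold doses from 1 to 10,000 nM, in duplicate. ATP luminescence was normalised to vehicle and to a positive control at 10 µM and fitted with a four-parameter log-logistic model. The IC50 came from these dose–response fits.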

KCL-22 [17] = system: KCL-22
Method in brief: as §2

ML-2 [18] = system: ML-2
Method in brief: as §2

NOMO-1 [19] = system: NOMO-1
Method in brief: as §2

Mono-Mac-6 [20] = system: Mono-Mac-6
Method in brief: as §2

HL-60 [21] = system: HL-60
Method in brief: as §2

BV-173 [22] = system: BV-173
Method in brief: as §2

KU-812 [23] = system: KU-812
Method in brief: as §2

THP-1 [24] = system: THP-1
Method in brief: as §2

LAMA-84 [25] = system: LAMA-84
Method in brief: as §2

HEL [26] = system: HEL
Method in brief: as §2

K-562 [27] = system: K-562
Method in brief: as §2

MOLM-13 [28] = system: MOLM-13
Method in brief: as §2

KG-1 [29] = system: KG-1
Method in brief: as §2

SHI-1 [30] = system: SHI-1
Method in brief: as §2

Cc1ccc(-c2cc(C(F)(F)F)nn2-c2ccc(S(N)(=O)=O)cc2)cc1 [Celecoxib]
cell viability [%]
Settings	1 nM	10 nM	100 nM	1000 nM	10000 nM
BV-173 [7]	104	93.2	86.4	84.9	83.2
HEL [11]	96.1	104	89.9	99.5	97.1
HL-60 [6]	99.2	103	84.5	188	124
K-562 [12]	96.3	86.6	85.6	95.4	78.4
KCL-22 [2]	101	76.4	90.7	76.9	80
KG-1 [14]	96.8	102	97.4	110	93.8
KU-812 [8]	92.4	91.9	95.6	90.6	62.8
LAMA-84 [10]	98.6	106	94	93.7	79.6
ML-2 [3]	93.5	99.2	105	87.4	76.8
MOLM-13 [13]	81.3	85.7	85.4	139	92.5
MV4-11 [1]	97.5	96.4	83.7	110	79.4
Mono-Mac-6 [5]	104	101	105	104	75.3
NOMO-1 [4]	101	109	94.8	99.4	95.5
SHI-1 [15]	118	104	95.6	112	94.2
THP-1 [9]	105	102	105	95.5	84.7

Settings	IC50 (cell viability) [µM]
BV-173 [22]	> 10
HEL [26]	> 10
HL-60 [21]	> 10
K-562 [27]	> 10
KCL-22 [17]	> 10
KG-1 [29]	> 10
KU-812 [23]	> 10
LAMA-84 [25]	> 10
ML-2 [18]	> 10
MOLM-13 [28]	> 10
MV4-11 [16]	> 10
Mono-Mac-6 [20]	> 10
NOMO-1 [19]	> 10
SHI-1 [30]	> 10
THP-1 [24]	> 10

O=c1c(-c2ccc(O)cc2)coc2cc(O[C@@H]3O[C@H](CO)[C@@H](O)[C@H](O)[C@H]3O)ccc12 [Daidzin]
cell viability [%]
Settings	1 nM	10 nM	100 nM	1000 nM	10000 nM
BV-173 [7]	94	87.4	92.4	125	91.8
HEL [11]	93	93.7	107	105	102
HL-60 [6]	107	99.6	100	93.9	92.7
K-562 [12]	92.1	98.9	98.5	111	106
KCL-22 [2]	88.6	98.9	103	109	111
KG-1 [14]	99	96.6	100	97.6	98.6
KU-812 [8]	90.9	93.6	100	99.5	87.5
LAMA-84 [10]	102	91	96.8	99.2	97.9
ML-2 [3]	103	90.1	95.8	112	97.8
MOLM-13 [13]	83.9	107	105	99.8	99.3
MV4-11 [1]	91.6	84	106	133	98.8
Mono-Mac-6 [5]	90.8	88.2	94.6	107	83.2
NOMO-1 [4]	93.4	99.7	99.4	101	103
SHI-1 [15]	93.7	106	108	107	103
THP-1 [9]	97.8	98.5	97.5	106	95.4

Settings	IC50 (cell viability) [µM]
BV-173 [22]	> 10
HEL [26]	> 10
HL-60 [21]	> 10
K-562 [27]	> 10
KCL-22 [17]	> 10
KG-1 [29]	> 10
KU-812 [23]	> 10
LAMA-84 [25]	> 10
ML-2 [18]	> 10
MOLM-13 [28]	> 10
MV4-11 [16]	> 10
Mono-Mac-6 [20]	> 10
NOMO-1 [19]	> 10
SHI-1 [30]	> 10
THP-1 [24]	> 10

CCN(CC)C(=S)SSC(=S)N(CC)CC [Disulfiram]
cell viability [%]
Settings	1 nM	10 nM	100 nM	1000 nM	10000 nM
BV-173 [7]	96	103	97.6	37.5	-0.175
HEL [11]	101	86.8	96.6	87.9	68
HL-60 [6]	100	104	89.2	83.3	93.7
K-562 [12]	90.2	99.1	89.8	29.7	70.9
KCL-22 [2]	72.4	92.3	94.4	61.3	62.7
KG-1 [14]	92.7	89.8	92.7	2.8	22
KU-812 [8]	99.7	99.3	97	66	66.9
LAMA-84 [10]	93.5	94.5	94.4	90.8	67.7
ML-2 [3]	92	106	91.4	6.36	11.6
MOLM-13 [13]	94.1	76.7	93.3	98.2	92.7
MV4-11 [1]	94.1	114	98.3	88.7	53.5
Mono-Mac-6 [5]	91.9	100	67.9	25.5	62.5
NOMO-1 [4]	95.3	99.4	101	92	88.9
SHI-1 [15]	87.7	92.8	44.8	-0.354	65.1
THP-1 [9]	94.5	95.6	48.1	30.5	57.4

Settings	IC50 (cell viability) [µM]
BV-173 [22]	0.778
HEL [26]	> 10
HL-60 [21]	> 10
K-562 [27]	0.447
KCL-22 [17]	> 10
KG-1 [29]	0.272
KU-812 [23]	> 10
LAMA-84 [25]	> 10
ML-2 [18]	0.264
MOLM-13 [28]	> 10
MV4-11 [16]	7.02
Mono-Mac-6 [20]	0.171
NOMO-1 [19]	> 10
SHI-1 [30]	0.0728
THP-1 [24]	0.0708
